The values that follow come from patent US11045448B2, “Piperidines as covalent menin inhibitors” (THE REGENTS OF THE UNIVERSITY OF MICHIGAN, priority 2017, dated 2021).

SMILES strings stand for the structures. Where two headings read alike, the source gives them in different places.

Experiment [1] addresses T1, menin protein (Homo sapiens (Human), UniProt O00255). The experiment can be described thus: Fluorescence polarization (FP) competitive binding assay, menin binding affinity. The following applies: menin protein 4 nM, probe 2 nM, room temperature 30 minutes. As to the method: A fluorescence polarization (FP) competitive binding assay was used to determine the binding affinities of representative menin inhibitors. A FAM labeled fluorescent probe was designed and synthesized based on a MLL1 peptide (FAM-MM2). Equilibrium dissociation constant (Kd) value of FAM-MM2 to menin protein was determined from protein saturation experiments by monitoring the total fluorescence polarization of mixtures composed with the fluorescent probe at a fixed concentration and the protein with increasing concentrations up to full saturation. Serial dilutions of the protein were mixed with FAM-MM2 to a final volume of 200 μl in the assay buffer (PBS with 0.02% Bovine γ-Globulin and 4% DMSO. 0.01% Triton X-100 was added right before assays). Final FAM-MM2 concentration was 2 nM. Plates were incubated at room temperature for 30 minutes with gentle shaking to assure equilibrium. FP values in millipolarization units (mP) were measured using the Infinite M-1000 plate reader (Tecan U.S., Research Triangle Park, N.C.) in Microfluor 1 96-well, black, v-bottom plates (Thermo Scientific, Waltham, Mass.) at an excitation wavelength of 485 nm and an emission wavelength of 530 nm.
The IC50, see Table 3, of representative Compounds of the Disclosure were determined in a competitive binding experiment. Mixtures of 5 μl of the tested compounds in DMSO and 195 μl of preincubated protein/probe complex solution in the assay buffer were added into assay plates which were incubated at room temperature for 30 minutes with gentle shaking. Final concentration of the menin protein was 4 nM, and final probe concentration is 2 nM. Negative controls containing protein/probe complex only (equivalent to 0% inhibition), and positive controls containing only free probes (equivalent to 100% inhibition), were included in each assay plate. FP values were measured as described above. IC50 values were determined by nonlinear regression fitting of the competition curves.

Experiment [2] addresses T1, menin protein. The experiment can be described thus: Covalent binding to menin protein by mass spectroscopy. The conditions noted are these: incubated with recombinant human menin, compared to menin apo. Here is the method: No. 1 and Cpd. […] Recombinant human menin protein was incubated with Cpd. No. 1 or Cpd. No. 3 and compared to menin protein alone (Menin apo).

Experiment [3] deals with MV4-11. The experiment can be described thus: 7-day proliferation assay (WST-8), MV4-11. Type of experiment: cell-based. The following applies: Homo sapiens, 168 h, 7 days, read-out: IC50 in cell growth inhibition. As to the method: (§1) The effect of representative Compounds of the Disclosure on cell viability was determined in a 7-day proliferation assay. Cells were maintained in the appropriate culture medium with 10% FBS at 37° C. and an atmosphere of 5% CO2.
(§2) Cells were seeded in 96-well flat bottom (Corning COSTAR, Corning, N.Y., cat #3595) at a density of 2,000-3,000 cells/well in 100 μl of culture medium. Compounds were serially diluted in the appropriate medium, and 100 μl of the diluted compounds were added to the appropriate wells of the cell plate. After the addition of compounds, the cells were incubated at 37° C. in an atmosphere of 5% CO2 for 7 days. Cell viability was determined using the WST (2-(2-methoxy-4-nitrophenyl)-3-(4-nitrophenyl)-5-(2,4-disulfophenyl)-2H-tetrazolium, monosodium salt) Cell Counting-8 Kit (Dojindo Molecular Technologies, Inc., Rockville, Md.) according to the manufacturers' instructions.
(§3) WST-8 reagent was added to each well at a final concentration of 10% (v/v), and then the plates were incubated at 37° C. for 1-2 hours for color development. The absorbance was measured at 450 nm using a SPECTRAmax PLUS plate reader (Molecular Devices, Sunnyvale, Calif.). The readings were normalized to the DMSO-treated cells and the half maximal inhibitory concentration (IC50) was calculated by nonlinear regression (four parameters sigmoid fitted with variable slope, least squares fit, and no constraint) analysis using the GraphPad Prism 5 software (GraphPad Software, La Jolla, Calif.).

In experiment [4] the test system is MOLM13. The experiment can be described thus: 7-day proliferation assay (WST-8), MOLM13. The class given is cell-based. The conditions noted are these: Homo sapiens, MOLM-13, 168 h, 7 days, read-out: IC50 in cell growth inhibition. As to the method: as §1, §2, §3
For orientation: Tetrazolium assays rely on reduction of a dye to a coloured formazan, in cell work by metabolically active cells.

Experiment [5] deals with MOLM14. The experiment can be described thus: 7-day proliferation assay (WST-8), MOLM14. Type of experiment: cell-based. The conditions noted are these: Homo sapiens, MOLM-14, 168 h; Table 4; MOLM14, AML, MLL/AF9; 7 days; read-out: IC50 in cell growth inhibition. Here is the method:
as §1, §2, §3

Experiment [6] relates to SEM cells. The experiment can be described thus: 7-day proliferation assay (WST-8), SEM. The class given is cell-based. The following applies: MLL-AF9, 168 h; Table 4; 7 days; read-out: IC50 in cell growth inhibition. Here is the method:
as §1, §2, §3

The subject of experiment [7] is MonoMac6. The experiment can be described thus: 7-day proliferation assay (WST-8), MonoMac6. Type of experiment: cell-based. The conditions noted are these: Homo sapiens, MONO-MAC-6, 168 h; Table 4; MonoMac6, AML, MLL/AF9; 7 days; read-out: IC50 in cell growth inhibition. Here is the method: as §1, §2, §3
In experiment [8] the test system is RS4-11. The experiment can be described thus: 7-day proliferation assay (WST-8), RS4-11. Type of experiment: cell-based. The conditions noted are these: Homo sapiens, 168 h; Table 4; RS4-11, B-lineage ALL, MLL/AF4; 7 days; read-out: IC50 in cell growth inhibition. Here is the method: as §1, §2, §3

T1 sequence (O00255 whole entry): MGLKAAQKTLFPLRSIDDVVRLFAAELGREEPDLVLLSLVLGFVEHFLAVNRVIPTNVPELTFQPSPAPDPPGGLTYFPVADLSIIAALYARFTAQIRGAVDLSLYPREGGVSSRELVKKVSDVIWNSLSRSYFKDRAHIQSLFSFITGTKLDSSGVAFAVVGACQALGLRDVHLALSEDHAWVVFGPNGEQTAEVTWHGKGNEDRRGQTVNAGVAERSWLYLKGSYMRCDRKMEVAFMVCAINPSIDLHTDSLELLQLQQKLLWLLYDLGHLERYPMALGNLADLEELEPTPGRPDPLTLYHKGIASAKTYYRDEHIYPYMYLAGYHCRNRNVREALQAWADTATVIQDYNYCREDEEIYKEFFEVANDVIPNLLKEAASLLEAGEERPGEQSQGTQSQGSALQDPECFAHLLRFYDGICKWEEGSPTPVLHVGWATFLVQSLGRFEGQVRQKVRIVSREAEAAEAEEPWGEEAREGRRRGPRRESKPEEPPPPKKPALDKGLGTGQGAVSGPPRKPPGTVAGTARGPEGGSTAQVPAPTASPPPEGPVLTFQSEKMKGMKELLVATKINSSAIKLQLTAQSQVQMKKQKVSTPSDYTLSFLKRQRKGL

With `C=CC(=O)Nc1cccc(S(=O)(=O)c2ccc(N3CC(CN4CCC([C@@](C#N)(c5cccc(F)c5)[C@H]5CCC[C@@H]5OC(=O)NC)CC4)C3)cc2)c1` [Cpd. No. 3, (1S,2R)-2-((S)-(1-((1-(4-((3-acrylamidophenyl)sulfonyl)phenyl)azetidin-3-yl)methyl)piperidin-4-yl)(cyano)(3-fluorophenyl)methyl)cyclopentyl methylcarbamate], in experiment [1], the IC50 – broadly, the concentration at which inhibition is half-maximal – is 0.003 µM. For the same compound, the “Covalent binding with menin protein (mass spectroscopy)” value in experiment [2] is on record as “covalently bind with menin protein”.
Turning to `C=CC(=O)N1CC(S(=O)(=O)c2ccc(N3CC(CN4CCC([C@@](C#N)(c5cccc(F)c5)[C@H]5CCC[C@@H]5OC(=O)NC)CC4)C3)cc2)C1` [Cpd. No. 1, (1S,2R)-2-((S)-(1-((1-(4-((1-acryloylazetidin-3-yl)sulfonyl)phenyl)azetidin-3-yl)methyl)piperidin-4-yl)(cyano)(3-fluorophenyl)methyl)cyclopentyl methylcarbamate], the IC50 in experiment [1] was 0.005 µM; in experiment [3] (Table 4, MV4-11, AML, MLL/AF4), 0.0043 µM; in experiment [4] (Table 4, MOLM13, AML, MLL/AF9), 0.0272 µM; in experiment [5], 0.041 µM; in experiment [6], 0.0109 µM; in experiment [7], 0.084 µM. For the same compound, the half-maximal inhibitory concentration (IC50) in experiment [8] amounted to 0.0088 µM. The “Covalent binding with menin protein (mass spectroscopy)” value in experiment [2] is listed as “covalently bind with menin protein”.
For the compound `C=CC(=O)Nc1cccc(S(=O)(=O)c2ccc(N3CC(CN4CCC([C@@](C#N)(c5cccc(F)c5)[C@H]5CCC[C@@H]5NC(=O)OC)CC4)C3)cc2)c1` [Cpd. No. 5, methyl ((1S,2R)-2-((S)-(1-((1-(4-((3-acrylamidophenyl)sulfonyl)phenyl)azetidin-3-yl)methyl)piperidin-4-yl)(cyano)(3-fluorophenyl)methyl)cyclopentyl)carbamate], the IC50 in experiment [1] came out at 0.002 µM; in experiment [3] (Table 4, MV4-11, AML, MLL/AF4), 0.0083 µM; in experiment [4] (Table 4, MOLM13, AML, MLL/AF9) it was 0.0414 µM; in experiment [5] it was 0.0788 µM; in experiment [6] it was 0.0396 µM; in experiment [7], 0.156 µM. Further, in experiment [8], the IC50 was 0.0107 µM.
On to `C=CC(=O)N1CC(S(=O)(=O)c2ccc(N3CC(CN4CCC([C@@](C#N)(c5cccc(F)c5)[C@H]5CCC[C@@H]5NC(=O)OC)CC4)C3)cc2)C1` [Cpd. No. 6, methyl ((1S,2R)-2-((S)-(1-((1-(4-((1-acryloylazetidin-3-yl)sulfonyl)phenyl)azetidin-3-yl)methyl)piperidin-4-yl)(cyano)(3-fluorophenyl)methyl)cyclopentyl)carbamate], for which the IC50 in experiment [1] worked out at 0.003 µM; in experiment [3] (Table 4, MV4-11, AML, MLL/AF4), 0.0448 µM; in experiment [4] (Table 4, MOLM13, AML, MLL/AF9), 0.154 µM; in experiment [5] it was 0.18 µM; in experiment [6] it was 0.079 µM; in experiment [7], 0.764 µM. Also, in experiment [8], the IC50 amounted to 0.0621 µM.
Regarding `C=CC(=O)Nc1cccc(S(=O)(=O)c2ccc(N3CC(CN4CCC([C@@](Cn5ccnc5CC)(c5cccc(F)c5)[C@H]5CCC[C@@H]5NC(=O)OC)CC4)C3)cc2)c1` [Cpd. No. 7, methyl ((1S,2R)-2-((S)-1-(1-((1-(4-((3-acrylamidophenyl)sulfonyl)phenyl)azetidin-3-yl)methyl)piperidin-4-yl)-2-(2-ethyl-1H-imidazol-1-yl)-1-(3-fluorophenyl)ethyl)cyclopentyl)carbamate], the IC50 in experiment [1] was determined as 0.003 µM; in experiment [3] (Table 4, MV4-11, AML, MLL/AF4) it was 0.0022 µM; in experiment [4] (Table 4, MOLM13, AML, MLL/AF9), 0.0169 µM; in experiment [5], 0.0176 µM; in experiment [6], 0.0047 µM; in experiment [7], 0.0677 µM. For the same compound, in experiment [8], the IC50 came to 0.0059 µM.
`N#C[C@@](c1cccc(F)c1)(C1CCN(CC2CN(c3ccc(S(=O)(=O)C4CC4)cc3)C2)CC1)[C@H]1CCC[C@@H]1NC(=O)CCl` [Cpd. No. 76, 2-chloro-N-((1S,2R)-2-((S)-cyano(1-((1-(4-(cyclopropylsulfonyl)phenyl)azetidin-3-yl)methyl)piperidin-4-yl)(3-fluorophenyl)methyl)cyclopentyl)acetamide]: the IC50 in experiment [1] is 0.005 µM; in experiment [3] (Table 5, MV4-11), 0.117 µM; in experiment [4] (Table 5, MOLM13) it was 0.313 µM.
Take `COC(=O)N[C@H]1CCC[C@@H]1[C@](Cn1ccnn1)(c1cccc(F)c1)C1CCN(CC2CN(c3ccc(S(=O)(=O)C4CN(C(=O)/C=C/CN(C)C)C4)cc3)C2)CC1` [Cpd. No. 72, methyl ((1S,2R)-2-((S)-1-(1-((1-(4-((1-((E)-4-(dimethylamino)but-2-enoyl)azetidin-3-yl)sulfonyl)phenyl)azetidin-3-yl)methyl)piperidin-4-yl)-1-(3-fluorophenyl)-2-(1H-1,2,3-triazol-1-yl)ethyl)cyclopentyl)carbamate]: the IC50 in experiment [1] was determined as 0.002 µM; in experiment [3] (Table 5, MV4-11), 0.001 µM; in experiment [4] (Table 5, MOLM13), 0.022 µM.
